Source: paper PMC3306470 (ACS chemical biology, 2012)

Legend:
[1] = target: endogenous PARG in whole cell lysate generated from mouse embryonic fibroblasts (MEFs) (Mus musculus, UniProt O88622); assay: Processing of 32P-PAR by MEF whole cell lysate; format: biochemical; conditions: 25 μM, MEF lysate 1.5 μg
PARG [2] = conditions: cited from earlier work
[3] = not told; cited from earlier work
PARG [4] = assay: PARG in vitro assay; conditions: for PARG inhibition: 0.5 h incubation with 32P-PAR
PARG [5] = assay: PARG in vitro assay under the original salicylanilide conditions; conditions: 10 μM; phosphate buffer, 5 min; both in the absence and presence of 0.1% Triton X-100
ß-lactamase = assay: ß-Lactamase assay

Sequence of endogenous PARG in whole cell lysate generated from mouse embryonic fibroblasts (MEFs) (O88622 whole entry): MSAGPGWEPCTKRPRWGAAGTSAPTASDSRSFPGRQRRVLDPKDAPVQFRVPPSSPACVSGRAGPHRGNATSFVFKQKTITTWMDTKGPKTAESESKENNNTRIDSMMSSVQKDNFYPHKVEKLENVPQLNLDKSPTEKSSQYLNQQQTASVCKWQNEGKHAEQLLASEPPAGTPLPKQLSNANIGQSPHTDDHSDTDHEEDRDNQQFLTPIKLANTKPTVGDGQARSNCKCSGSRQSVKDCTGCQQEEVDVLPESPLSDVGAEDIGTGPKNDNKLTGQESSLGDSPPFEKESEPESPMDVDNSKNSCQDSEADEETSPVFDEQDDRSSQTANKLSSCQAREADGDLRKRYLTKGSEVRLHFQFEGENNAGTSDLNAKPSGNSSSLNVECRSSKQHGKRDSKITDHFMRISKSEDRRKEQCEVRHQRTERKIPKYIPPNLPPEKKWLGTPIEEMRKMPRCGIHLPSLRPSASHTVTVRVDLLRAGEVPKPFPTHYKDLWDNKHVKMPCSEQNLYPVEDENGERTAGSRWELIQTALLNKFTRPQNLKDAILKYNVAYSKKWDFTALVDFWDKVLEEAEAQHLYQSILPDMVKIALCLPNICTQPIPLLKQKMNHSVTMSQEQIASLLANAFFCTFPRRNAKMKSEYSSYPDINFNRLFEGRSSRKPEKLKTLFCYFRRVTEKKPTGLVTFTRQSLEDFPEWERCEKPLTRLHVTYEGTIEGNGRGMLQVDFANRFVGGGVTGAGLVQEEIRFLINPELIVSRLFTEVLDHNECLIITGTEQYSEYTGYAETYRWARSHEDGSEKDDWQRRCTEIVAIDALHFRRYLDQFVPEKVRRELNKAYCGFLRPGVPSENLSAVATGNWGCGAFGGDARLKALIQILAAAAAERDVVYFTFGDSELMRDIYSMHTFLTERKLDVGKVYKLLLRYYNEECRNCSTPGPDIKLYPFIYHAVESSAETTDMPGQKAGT

| Structure (SMILES) | intact PAR at 60 min [1] | partial inhibition of PARG (PARG [2]) | IC50 (PARG [2]; read-out: IC50 for PARG inhibition, literature value) [nM] | cell permeability [3] | PARG inhibition (PARG [4]; 0.5 μM) | PARG inhibition (PARG [4]; 25 μM) [%] | PARG inhibition after prolonged incubation (PARG [4]; 0.5 – 25 μM, 2 h incubation with 32P-PAR) | PARG inhibition (PARG [5]) | inhibition of ß-lactamase (ß-lactamase; 50 μM, absence of detergent) [%] | inhibition of ß-lactamase in the presence of detergent (ß-lactamase; 5-50 μM, 0.1% Triton X-100) [%] | effect of detergent on inhibition of PARG (PARG [4]; compound 50 μM, presence or absence of 0.1% Triton X-100, 2 h) |
| --- | --- | --- | --- | --- | --- | --- | --- | --- | --- | --- | --- |
| Nc1ncnc2c1ncn2[C@@H]1O[C@H](CO[P@](=O)(O)O[P@@](=O)(O)OC[C@H]2NC[C@H](O)[C@@H]2O)[C@@H](O)[C@H]1O [ADP-HPD, Adenosine diphosphate (hydroxymethyl)pyrrolidinediol] | approx. 80% | partial inhibition of PARG | 120 | lack of cell permeability | partially inhibited | 67 | only minimal PARG inhibition | complete inhibition |  |  |  |
| Nc1c(/N=N/c2ccc(-c3ccc(/N=N/c4cc(S(=O)(=O)O)c5ccccc5c4N)cc3)cc2)cc(S(=O)(=O)O)c2ccccc12 [Congo Red] |  |  |  |  |  |  |  |  | 100 | < 10 | complete loss of inhibition |
